Like-named read-outs stand apart in the source and are kept apart here.
Experiments:
[1] = tested on: intracellular cGMP levels in H1299 cells; experiment: cGMP biosensor assay (luciferase); assay type: cell-based, human; settings: for EC50: Homo sapiens, NCI-H1299, H1299 biosensor cells, read-out: EC50 to induce cGMP elevation
Description: (§1) Stable cell lines with an expression of luciferase-based cGMP biosensor were established from H1299 NSCLC cells and HEK293 cells using a genetically encoded GAF-Luc construct (Promega), containing a cGMP-specific binding domain from human PDE5A GAF-A domain fused to modified firefly luciferase (35). Cells were pre-incubated at room temperature in CO2 independent media supplemented with 10% FBS and 5 mmol/L luciferin. For the measurement of intracellular cGMP levels, sodium nitroprusside (SNP) or C-type natriuretic peptide (CNP) in combination with PDE inhibitors were added to initiate the experiment and the increased luminescence values in live cells were detected constantly over a period time of 2 hours.

H460 cells = experiment: Growth assay (Cell Titer Glo); assay type: cell-based; settings: Homo sapiens, NCI-H460; H460, 72 hours, 5% serum; read-out: Growth inhibition IC50
Description: (§2) Cells were plated in half area 96-well microtiter plates (Corning) at a density of 3, 000 cells per well. For drug treatment, cells were treated with compound or DMSO as vehicle (final concentration at 0.2%). For siRNA assays, cells were transfected with siRNAs under the same condition as described above. The effect of treatment on cell growth was measured using the Cell Titer Glo (CTG) assay (Promega) as specified by the measurement of viable cells based on ATP content after 72 hours standard culture. All growth assay involving NSCLCs and NHAECs were performed in the presence of 5% serum.
(§3) Drug effects on cell growth and IC50 values were determined as described previously. All experiments were repeated a minimum of three times to determine the reproducibility of the results. All error bars represent standard error of the mean (SEM). Statistical analysis was performed using Student’s t test or other as indicated. A P value of <0.05 was considered statistically significant.

A549 cells = experiment: Growth assay (Cell Titer Glo); assay type: cell-based; settings: Homo sapiens; A549, 72 hours, 5% serum; read-out: Growth inhibition IC50
Description: as §2, §3

H522 cells = experiment: Growth assay (Cell Titer Glo); assay type: cell-based; settings: Homo sapiens, NCI-H522; H522, 72 hours; read-out: Growth inhibition IC50
Description: as §2, §3

HOP-92 cells = experiment: Growth assay (Cell Titer Glo); assay type: cell-based; settings: Homo sapiens; HOP-92, 72 hours; read-out: Growth inhibition IC50
Description: as §2, §3

H23 cells = experiment: Growth assay (Cell Titer Glo); assay type: cell-based; settings: Homo sapiens, NCI-H23; H23, 72 hours; read-out: Growth inhibition IC50
Description: as §2, §3

H226 cells = experiment: Growth assay (Cell Titer Glo); assay type: cell-based; settings: Homo sapiens, NCI-H226; H226, 72 hours; read-out: Growth inhibition IC50
Description: as §2, §3

EKVX cells = experiment: Growth assay (Cell Titer Glo); assay type: cell-based; settings: Homo sapiens, 72 hours, read-out: Growth inhibition IC50
Description: as §2, §3

H322M cells = experiment: Growth assay (Cell Titer Glo); assay type: cell-based; settings: Homo sapiens, NCI-H322M, 72 hours, read-out: Growth inhibition IC50
Description: as §2, §3

HOP62 cells = experiment: Growth assay (Cell Titer Glo); assay type: cell-based, human; settings: for IC50: Homo sapiens, HOP-62, HOP62, 72 hours, 5% serum, read-out: Growth inhibition IC50
Description: as §2, §3

PDE6A/B = experiment: IMAP fluorescence polarization PDE assay, recombinant PDE isozymes; assay type: biochemical; parameters: key: Inactive: >100 µmol/L shows no inhibition; settings: substrate cGMP
Description: (§4) The enzymatic activity of recombinant PDE or PDE activities in cell lysates were measured using the IMAP fluorescence polarization (FP) PDE assay (Molecular Devices) as previously described. PDE10 inhibitors and DMSO as the vehicle were added to assay buffer 10 minutes before the incubation with the enzyme reaction. Fluorescence polarization values were measured using Synergy H4 Hybrid Reader (BioTek).

PDE7A = PDE7A (Homo sapiens, UniProt Q13946); experiment: as above; assay type: biochemical; parameters: key: Inactive: >100 µmol/L shows no inhibition; settings: substrate cAMP
Description: as §4

PDE9A = PDE9A (Homo sapiens, UniProt O76083); experiment: as above; assay type: biochemical; parameters: key: Inactive: >100 µmol/L shows no inhibition; settings: substrate cGMP
Description: as §4

PDE8A = PDE8A (Homo sapiens, UniProt O60658); experiment: as above; assay type: biochemical; parameters: key: Inactive: >100 µmol/L shows no inhibition; settings: substrate cAMP
Description: as §4

β-catenin in H1299 cells = experiment: Western blotting, β-catenin phosphorylation; assay type: cell-based, human; settings: H1299 cells
Description: (§5) Whole cell extraction was performed according to a previously described method using cell lysing buffer (Cell Signaling) supplemented with 10 mmol/L NaF for protein phosphorylation studies. Cell lysates were separated by 4-12% gradient, 7% or 10% pre-casting PAGE (Novex/Invitrogen) followed by electrophoretic transfer to a nitrocellulose membrane. Western blotting procedures were performed using Chemiluminescence Reagent (Pierce) and visualized using Chemi Doc Imaging System (BioRad).

[2] = tested on: HOP62 PDE10 knockdown cells (shPDE10); experiment: Growth assay (Cell Titer Glo); assay type: cell-based, human; settings: shPDE10, PQ10 2 µmol/L
Description: (§6) The transient knockdown of PDE10 in NSCLC cells by PDE10-specific siRNA and scramble siRNA control was performed using RNAiMAX reagent (Invitrogen) as previously described. Effects of siRNA on NSCLC cell growth and PDE10 expression levels were measured after 72 hours of treatment. For a stable knockdown of PDE10, GIPZ lentiviral short hairpin RNA (shRNA) vectors targeting human PDE10, nonsilencing GPIZ lentiviral control vector, and transduction kit were purchased from Open Biosystems. Lentiviral particles of shRNA were produced in HEK293T cells (ATCC) according to the manufacturer’s instructions. HOP62 NSCLC cells were transfected by the lentivirus particles followed by puromycin (5 μg/mL) selection. Stable expression cell lines with shRNA of PDE10 (shPDE10) or lentiviral vector control (shCTL) were obtained by limited dilution for single cell clone and confirmed by Western blotting.
as §2, with “All growth assay involving NSCLCs and NHAECs were performed in the presence of 5% serum.” left out

[3] = tested on: PKG activation in H1299 cells; experiment: Western blotting, PKG activation (pSer239-VASP); assay type: cell-based, human
Description: as §5

[4] = tested on: cleaved PARP and caspase 3 in H1299 cells; experiment: Western blotting, cleaved PARP and caspase 3 (apoptosis); assay type: cell-based, human; settings: H1299 cells
Description: as §5

[5] = tested on: intracellular cGMP levels in HEK293 cells; experiment: cGMP biosensor assay (luciferase); assay type: cell-based, human
Description: as §1

PDE4B = PDE4B (Homo sapiens, UniProt Q07343); experiment: IMAP fluorescence polarization PDE assay, recombinant PDE isozymes; assay type: biochemical; settings: substrate cAMP; read-out: IC50 of PQ10 cAMP
Description: as §4

PDE11A = PDE11A (Homo sapiens, UniProt Q9HCR9); experiment: as above; assay type: biochemical
Description: as §4

PDE1A = PDE1A (Homo sapiens, UniProt P54750); experiment: as above; assay type: biochemical
Description: as §4

PDE3A = PDE3A (Homo sapiens, UniProt Q14432); experiment: as above; assay type: biochemical
Description: as §4

PDE5A = PDE5A (Homo sapiens, UniProt O76074); experiment: as above; assay type: biochemical; settings: substrate cGMP; read-out: IC50 of PQ10 cGMP
Description: as §4

PDE2A = PDE2A (Homo sapiens, UniProt O00408); experiment: as above; assay type: biochemical
Description: as §4

PDE10A = PDE10A (Homo sapiens, UniProt Q9Y233); experiment: as above; assay type: biochemical
Description: as §4

[6] = tested on: HOP62 cells (shCTL vector control); experiment: Colony formation assay; assay type: cell-based, human
Description: as §6
(§7) For colony formation assays, 200 viable cells were plated in 6-well tissue culture plates and were cultured in RPMI medium supplemented with 5% serum. DMSO (0.2%) as the vehicle and different concentrations of PQ10 were added to the cell culture medium for 14 days of treatment. Colonies were counted after staining with crystal violet as previously described.

[7] = tested on: HOP62 PDE10 knockdown cells (shPDE10); experiment: Colony formation assay; assay type: cell-based, human
Description: as §6, §7

[8] = tested on: normal human airway epithelial cells (NHAECs); experiment: Growth assay (Cell Titer Glo); assay type: cell-based
Description: as §2, §3

H1975 cells = experiment: Growth assay (Cell Titer Glo); assay type: cell-based; settings: Homo sapiens, NCI-H1975; H1975, 72 hours, 5% serum; read-out: Growth inhibition IC50
Description: as §2, §3

human lung tumor cells = experiment: Growth assay (Cell Titer Glo), lung tumor cell panel; assay type: cell-based
Description: as §2, §3

H1299 cells = experiment: Growth assay (Cell Titer Glo); assay type: cell-based, human; settings: Homo sapiens, NCI-H1299; H1299, 72 hours, 5% serum; read-out: Growth inhibition IC50
Description: as §2, §3

[9] = tested on: MAPK signaling in H1299 cells; experiment: Western blotting, RAF/MAPK signaling; assay type: cell-based, human
Description: as §5

[10] = substrate cAMP, read-out: IC50 of PQ10 cAMP
[11] = substrate cGMP, read-out: IC50 of PQ10 cGMP

PDE3A, sequence (Q14432 whole entry): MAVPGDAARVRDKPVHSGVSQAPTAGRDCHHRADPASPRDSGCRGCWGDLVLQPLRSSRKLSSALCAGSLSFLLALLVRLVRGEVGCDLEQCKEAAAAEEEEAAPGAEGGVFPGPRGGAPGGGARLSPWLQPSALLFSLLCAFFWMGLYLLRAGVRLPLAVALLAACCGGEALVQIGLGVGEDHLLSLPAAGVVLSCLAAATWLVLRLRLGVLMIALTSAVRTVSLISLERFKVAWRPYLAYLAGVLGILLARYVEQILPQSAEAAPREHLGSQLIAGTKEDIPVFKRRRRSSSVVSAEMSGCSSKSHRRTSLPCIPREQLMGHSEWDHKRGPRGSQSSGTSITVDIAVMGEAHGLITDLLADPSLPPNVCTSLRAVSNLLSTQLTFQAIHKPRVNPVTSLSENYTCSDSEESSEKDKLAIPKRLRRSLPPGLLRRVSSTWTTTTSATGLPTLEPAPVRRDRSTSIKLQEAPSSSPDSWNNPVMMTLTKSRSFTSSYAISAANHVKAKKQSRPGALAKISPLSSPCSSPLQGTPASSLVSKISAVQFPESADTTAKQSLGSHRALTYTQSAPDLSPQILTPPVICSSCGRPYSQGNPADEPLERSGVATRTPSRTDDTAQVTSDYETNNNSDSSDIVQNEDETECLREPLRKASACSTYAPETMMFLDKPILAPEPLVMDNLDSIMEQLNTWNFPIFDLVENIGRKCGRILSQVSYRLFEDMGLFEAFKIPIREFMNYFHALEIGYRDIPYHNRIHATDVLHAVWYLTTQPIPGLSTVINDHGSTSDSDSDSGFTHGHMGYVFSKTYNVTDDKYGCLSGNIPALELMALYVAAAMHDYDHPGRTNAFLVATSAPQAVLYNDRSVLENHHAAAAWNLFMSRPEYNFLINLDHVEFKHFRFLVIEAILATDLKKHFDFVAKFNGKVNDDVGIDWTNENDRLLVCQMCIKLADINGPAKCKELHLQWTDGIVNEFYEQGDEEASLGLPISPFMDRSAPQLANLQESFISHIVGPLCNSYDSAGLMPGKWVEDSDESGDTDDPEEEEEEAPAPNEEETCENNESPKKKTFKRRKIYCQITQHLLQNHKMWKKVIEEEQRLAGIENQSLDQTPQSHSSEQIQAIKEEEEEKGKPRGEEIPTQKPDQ
PDE10A, sequence (Q9Y233 718-1035 limits assumed): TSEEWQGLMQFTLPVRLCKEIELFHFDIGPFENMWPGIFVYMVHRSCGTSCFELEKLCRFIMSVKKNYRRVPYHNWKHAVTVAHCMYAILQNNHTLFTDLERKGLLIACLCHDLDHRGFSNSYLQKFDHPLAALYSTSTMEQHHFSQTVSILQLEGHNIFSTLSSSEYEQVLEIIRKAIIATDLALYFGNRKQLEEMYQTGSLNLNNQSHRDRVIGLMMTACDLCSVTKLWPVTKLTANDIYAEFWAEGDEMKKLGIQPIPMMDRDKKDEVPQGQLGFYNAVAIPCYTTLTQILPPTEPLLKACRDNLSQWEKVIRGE
PDE2A, sequence (O00408 whole entry): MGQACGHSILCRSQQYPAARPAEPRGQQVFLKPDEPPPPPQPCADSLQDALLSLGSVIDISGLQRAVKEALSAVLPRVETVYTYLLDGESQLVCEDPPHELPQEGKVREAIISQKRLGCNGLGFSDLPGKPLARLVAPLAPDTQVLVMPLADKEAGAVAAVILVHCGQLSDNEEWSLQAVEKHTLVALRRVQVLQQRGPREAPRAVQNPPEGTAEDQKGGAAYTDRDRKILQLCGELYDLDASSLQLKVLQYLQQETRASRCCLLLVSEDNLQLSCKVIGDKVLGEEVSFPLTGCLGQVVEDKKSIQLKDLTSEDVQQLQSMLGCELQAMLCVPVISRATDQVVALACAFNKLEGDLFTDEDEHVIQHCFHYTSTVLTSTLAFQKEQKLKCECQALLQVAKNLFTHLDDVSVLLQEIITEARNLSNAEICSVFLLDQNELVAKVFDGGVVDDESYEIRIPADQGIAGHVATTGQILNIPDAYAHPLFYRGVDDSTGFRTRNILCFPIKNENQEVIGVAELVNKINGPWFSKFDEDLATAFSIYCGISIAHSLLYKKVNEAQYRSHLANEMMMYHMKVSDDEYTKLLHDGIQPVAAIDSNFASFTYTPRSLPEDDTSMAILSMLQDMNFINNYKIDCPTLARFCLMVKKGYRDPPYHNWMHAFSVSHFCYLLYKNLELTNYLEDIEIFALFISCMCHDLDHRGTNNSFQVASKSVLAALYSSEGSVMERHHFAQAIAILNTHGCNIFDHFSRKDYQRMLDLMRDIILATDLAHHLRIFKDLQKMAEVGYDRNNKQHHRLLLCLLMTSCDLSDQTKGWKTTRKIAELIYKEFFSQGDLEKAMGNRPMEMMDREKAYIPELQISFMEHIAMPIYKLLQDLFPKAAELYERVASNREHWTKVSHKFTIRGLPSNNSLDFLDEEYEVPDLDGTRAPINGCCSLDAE
PDE11A, sequence (Q9HCR9 whole entry): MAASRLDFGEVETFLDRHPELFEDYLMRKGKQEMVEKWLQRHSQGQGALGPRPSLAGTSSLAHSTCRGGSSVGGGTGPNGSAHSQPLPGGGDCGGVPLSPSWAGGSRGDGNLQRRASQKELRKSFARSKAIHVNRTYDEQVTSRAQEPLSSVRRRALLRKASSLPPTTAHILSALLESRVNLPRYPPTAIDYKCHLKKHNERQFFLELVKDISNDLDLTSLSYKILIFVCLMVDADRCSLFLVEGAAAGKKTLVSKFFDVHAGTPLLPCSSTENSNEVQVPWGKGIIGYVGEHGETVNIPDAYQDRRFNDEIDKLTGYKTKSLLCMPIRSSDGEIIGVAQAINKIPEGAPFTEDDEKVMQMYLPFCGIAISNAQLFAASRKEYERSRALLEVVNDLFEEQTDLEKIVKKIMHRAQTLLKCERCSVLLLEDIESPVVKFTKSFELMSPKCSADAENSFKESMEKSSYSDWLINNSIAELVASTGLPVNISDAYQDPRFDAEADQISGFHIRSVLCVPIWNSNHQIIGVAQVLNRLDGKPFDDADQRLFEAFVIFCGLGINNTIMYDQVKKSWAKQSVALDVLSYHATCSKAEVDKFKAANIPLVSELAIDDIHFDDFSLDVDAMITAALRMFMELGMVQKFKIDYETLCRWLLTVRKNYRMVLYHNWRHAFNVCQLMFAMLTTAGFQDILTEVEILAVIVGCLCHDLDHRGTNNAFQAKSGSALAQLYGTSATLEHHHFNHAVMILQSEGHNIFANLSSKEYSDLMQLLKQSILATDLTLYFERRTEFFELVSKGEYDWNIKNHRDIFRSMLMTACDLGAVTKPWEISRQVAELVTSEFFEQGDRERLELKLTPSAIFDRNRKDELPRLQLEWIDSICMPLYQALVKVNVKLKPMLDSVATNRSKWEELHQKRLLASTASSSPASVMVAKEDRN
PDE1A, sequence (P54750 whole entry): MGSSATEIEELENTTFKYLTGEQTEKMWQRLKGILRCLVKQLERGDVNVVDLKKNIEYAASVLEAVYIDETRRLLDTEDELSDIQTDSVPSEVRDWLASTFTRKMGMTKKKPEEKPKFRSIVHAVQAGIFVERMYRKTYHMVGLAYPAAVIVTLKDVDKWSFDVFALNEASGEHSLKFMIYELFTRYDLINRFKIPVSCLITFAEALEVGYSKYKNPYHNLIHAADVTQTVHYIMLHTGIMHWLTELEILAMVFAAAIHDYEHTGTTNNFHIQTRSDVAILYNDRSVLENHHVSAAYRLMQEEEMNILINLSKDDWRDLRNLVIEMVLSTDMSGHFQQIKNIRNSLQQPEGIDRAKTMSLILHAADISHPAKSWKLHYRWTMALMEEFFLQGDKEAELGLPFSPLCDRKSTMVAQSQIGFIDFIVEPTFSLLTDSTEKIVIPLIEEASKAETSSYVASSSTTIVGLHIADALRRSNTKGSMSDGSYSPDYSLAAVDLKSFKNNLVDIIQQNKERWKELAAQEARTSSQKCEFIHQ
PDE7A, sequence (Q13946 whole entry): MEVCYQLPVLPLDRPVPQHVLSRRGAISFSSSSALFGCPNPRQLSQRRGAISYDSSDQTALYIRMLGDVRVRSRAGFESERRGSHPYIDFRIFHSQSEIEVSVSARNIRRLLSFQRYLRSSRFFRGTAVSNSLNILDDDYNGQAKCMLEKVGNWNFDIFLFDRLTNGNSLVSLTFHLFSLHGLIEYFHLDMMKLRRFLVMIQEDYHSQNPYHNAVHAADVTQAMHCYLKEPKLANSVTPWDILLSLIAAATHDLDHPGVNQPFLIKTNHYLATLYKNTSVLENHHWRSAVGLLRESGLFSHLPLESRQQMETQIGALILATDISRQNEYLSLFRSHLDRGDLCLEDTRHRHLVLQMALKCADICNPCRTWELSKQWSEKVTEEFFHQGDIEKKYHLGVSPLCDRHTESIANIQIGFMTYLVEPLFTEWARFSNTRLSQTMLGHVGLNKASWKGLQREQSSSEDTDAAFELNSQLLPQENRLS
PDE9A, sequence (O76083 whole entry): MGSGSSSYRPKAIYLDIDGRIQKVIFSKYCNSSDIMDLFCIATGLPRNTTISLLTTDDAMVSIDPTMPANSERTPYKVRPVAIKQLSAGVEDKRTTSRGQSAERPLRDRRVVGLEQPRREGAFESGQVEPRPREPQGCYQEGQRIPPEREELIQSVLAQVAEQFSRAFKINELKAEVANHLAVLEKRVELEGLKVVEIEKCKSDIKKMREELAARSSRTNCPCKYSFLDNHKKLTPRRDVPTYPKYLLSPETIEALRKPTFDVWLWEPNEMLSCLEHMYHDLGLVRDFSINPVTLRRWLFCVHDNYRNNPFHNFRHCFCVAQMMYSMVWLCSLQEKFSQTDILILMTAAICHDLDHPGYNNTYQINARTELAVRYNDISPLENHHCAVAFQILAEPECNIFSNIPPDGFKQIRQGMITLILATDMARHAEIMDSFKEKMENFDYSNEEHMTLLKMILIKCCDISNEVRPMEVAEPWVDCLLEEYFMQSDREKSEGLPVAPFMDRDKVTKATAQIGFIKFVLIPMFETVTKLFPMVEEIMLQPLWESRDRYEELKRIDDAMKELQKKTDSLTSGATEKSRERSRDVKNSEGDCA

CC(C)Cn1c(=O)n(C)c(=O)c2[nH]cnc21 [IBMX]
effect on luminescence values in biosensor assay ([1]; H1299, CNP 100 nmol/L, sildenafil 1 µmol/L, IBMX 100 µmol/L): increased luminescence levels

COc1ccc(Cc2nccc3cc(OC)c(OC)cc23)cc1OC [Papaverine]
IC50 (H460 cells): 16.3 µM
IC50 (A549 cells): 17.2 µM

Cn1cc(-c2ccncc2)c(-c2ccc(OCc3ccc4ccccc4n3)cc2)n1 [Pf-2545920]
IC50 (H522 cells): 25.8 µM
IC50 (H460 cells): 15.2 µM
IC50 (HOP-92 cells): 21.4 µM
IC50 (H23 cells): 18.1 µM
IC50 (A549 cells): 15.8 µM
IC50 (H226 cells): 21.1 µM
IC50 (EKVX cells): 18.6 µM
IC50 (H322M cells): 20 µM
IC50 (HOP62 cells): 22.9 µM

COc1cc2ncnc(N3CC[C@@H](Oc4cnc5ccccc5n4)C3)c2cc1OC [PQ10]
IC50 of PQ10 cGMP (PDE6A/B): Inactive
IC50 of PQ10 cAMP (PDE7A): Inactive
IC50 of PQ10 cGMP (PDE9A): Inactive
IC50 of PQ10 cAMP (PDE8A): Inactive
phosphorylation level of β-catenin at pSer675 (β-catenin in H1299 cells): no change
phosphorylation of β-catenin at pSer552 (β-catenin in H1299 cells; concentration-dependent, 0.5-1 hour): increased the phosphorylation
sensitivity of PDE10 knockdown HOP62 cells in growth assay [2]: appreciably less sensitive
time to increase in pSer239-VASP levels [3]: ≤ 30 minutes
lowest concentration increasing cleaved PARP and caspase 3 ([4]; 24 hours of treatment): 0.1 µmol/L
concentration of maximum effect on cleaved PARP and caspase 3 ([4]; 48 hours of treatment): 5 µmol/L
time to increase in cGMP levels ([1]; H1299 biosensor cells, sustained to 2 hours): ≤ 1 h
EC50 ([1]; CNP (100 nmol/L) stimulation): 1.31 µM
EC50 ([1]; SNP (100 µmol/L) stimulation): 1.72 µM
EC50 ([5]; Homo sapiens, HEK293 biosensor cells, SNP (100 µmol/L) stimulation, read-out: EC50 to induce cGMP elevation): 5.67 µM
EC50 fold higher in HEK293 than in H1299 biosensor cells ([5]; SNP (100 µmol/L)): about 3.3 fold
IC50 (PDE4B): 17.8 µM
IC50 (PDE11A; [10]): 30.1 µM
IC50 (PDE11A; [11]): 13.2 µM
IC50 (PDE1A; [10]): 29.2 µM
IC50 (PDE1A; [11]): 8.8 µM
IC50 (PDE3A; [10]): 0.47 µM
IC50 (PDE3A; [11]): 0.32 µM
IC50 (PDE5A): 1.8 µM
IC50 (PDE2A; [10]): 7 µM
IC50 (PDE2A; [11]): 3.7 µM
IC50 (PDE10A; [10]): 0.013 µM
IC50 (PDE10A; [11]): 0.005 µM
reduction of colony formation ([6]; 0.1 µmol/L, HOP62 vector control cells): 54.4%
IC50 ([6]; Homo sapiens, HOP-62, 336 h, HOP62 shCTL, 14 days of treatment): 0.098 µM
reduction of colony formation ([7]; 0.1 µmol/L, PDE10 knockdown HOP62 cells): 12.3%
IC50 ([7]; Homo sapiens, HOP-62, 336 h, HOP62 shPDE10, 14 days of treatment): 0.172 µM
IC50 (H460 cells): 0.32 µM
IC50 ([8]; Homo sapiens, Epithelial cell, NHAEC, 72 hours, 5% serum, read-out: Growth inhibition IC50): 17.3 µM
fold less sensitive to PQ10 treatment (NHAECs vs lung tumor cells) ([8]; growth assays under identical conditions): ≤ 50 fold
IC50 (A549 cells): 0.54 µM
IC50 (H1975 cells): 1.27 µM
maximum reduction of viable cell number (human lung tumor cells; 3 days of treatment): greater than 75%
IC50 (human lung tumor cells; Homo sapiens, 72 h, read-out: Growth inhibition IC50 values, range over human lung tumor cells): 0.32 to 1.69 µM
IC50 (HOP62 cells): 1.01 µM
growth of vector control HOP62 cells (HOP62 cells; shCTL, PQ10 2 µmol/L): effectively inhibited
IC50 (H1299 cells): 1.69 µM
MAPK signaling, ERK1/2 (p42/44) phosphorylation at T202/Y204 [9]: concentration- and time-dependent inhibition
phosphorylation of c-RAF at serine 338 and serine 259 [9]: did not affect

— publication PMC5642477, “Phosphodiesterase 10A is overexpressed in lung tumor cells and inhibitors selectively suppress growth by blocking β-catenin and MAPK signaling” (Oncotarget, 2017)
